Measurements as given in patent US9034914B2, “Pharmaceutical composition comprising rotigotine salts (acid or Na), especially for iontophoresis” (UCB Pharma GmbH, priority 2009, dated 2015).
Structures can show the parent of a compound that is named as a salt. Where two headings read alike, the source gives them in different places. Marks after values point to notes of the source that are not given here. One block for each molecule: values may come before it.

How the values were obtained:
[1] = Maximum (saturation) solubility in 10 mM citric buffer, HPLC assay; assay type: physicochemical; details: for solubility at 48 h: 10 mM citric buffer, thermodynamic from solid
Description: In order to compare the maximum solubility of pharmaceutically acceptable salts of rotigotine, e.g. rotigotine.H3PO4, with rotigotine.HCl, the solubility studies of rotigotine.salts were carried out as described by Nugroho et al. (Pharm. Res. 21 (2004), 844-855), which is incorporated herein by reference, who determined the solubility of rotigotine.HCl. Briefly, rotigotine.salt was solubilized in 10 mM citric buffer at pH 4, 5 and 6 with and without the presence of NaCl (at room temperature). Subsequent adjustment of pH in each test tube was performed by alternating adding small quantities of 1M NaOH under continuous shaking and subsequent pH measurements, until the pH of each solution had stabilized at the original buffer value. Each solution was shaken for an additional 48 hours, after which each solution was centrifuged and filtered. The concentration in each solution was determined by HPLC. Room temperature or ambient as used in the present application is to be understood to apply to a range from 18° C. to 25° C., preferred is about 20° C.
The maximum solubilities of rotigotine hydrochloride (abbreviated as Ro.HCl) and rotigotine hydrophosphate (abbreviated as rotigotine.H3PO4 or Ro.H3PO4) have been investigated as a function of pH in a number of solvents (table.1). Ro.H3PO4 was dissolved in the indicated buffer upon which the pH of the formed solution was adjusted to the target value by addition of sodium hydroxide solution. […] The drug was assayed by HPLC analysis in the filtered solution.
• Column: Merck Superspher 60 RP select B, length: 7.5 cm, column internal diameter: 4 mm, particle size: 5 μm • Mobile phase: 60% (v/v) water, 40% (v/v) acetonitrile 0.05% (v/v) methanesulfonic acid • Flow: 1.0 ml/min • Injection volume: collected fractions: 50 μl, diluted donor solutions: 4 μl • Column temperature: ambient • Detection: fluorescence, λex=276 nm, λem=302 nm

[2] = assay type: in vitro ADME, human; details: for steady state flux ± s.d., iontophoresis stage / Mean steady state flux ± sd: 9 h
Description: The preparation of human stratum corneum (HSC) was performed according to the method described previously (Nugroho et al., (Nugroho et al., J. Control Release (2005) 103, 393-403) which is incorporated herein by reference. Briefly, within 24 hours after surgical removal of the human skin residual subcutaneous fat was removed. Dermatomed human skin (DHS) was obtained by dermatoming the skin to a thickness of about 300 μm. In order to obtain HSC, DHS was incubated with the dermal side on Whatman paper soaked in a solution of 0.1% trypsin in 150 mM phosphate buffered saline (PBS) pH 7.4 (NaCl: 8 g·L^−1, Na2HPO4: 2.86 g·L^−1, KH2PO4: 0.2 g·L^−1, KCl: 0.19 g·L^−1) overnight at 4° C. and subsequently for 1 hour at 37° C. after which HSC was peeled off from the underlying viable epidermis and dermis. HSC was subsequently washed in a 0.1% trypsin inhibitor solution in Millipore water and several times in water and stored in a desiccator in a N2 environment.
The in vitro transport studies were done by using a 9-channel computer controlled power supply in order to provide a constant direct current (Electronics Department, Gorlaeus Laboratories, Leiden University, The Netherlands) during iontophoresis. The system was equipped with differential input channels per current source enabling on-line measurement of the electric resistance across HSC in each diffusion cell. Ag/AgCl was used as driver electrode pair. All transport experiments were carried out, using a three chamber continuous flow through cell as described elsewhere (Nugroho et al., J. Control Release (2005) 103, 393-403). The donor formulation, buffered with a 10 mM citric buffer, was applied at the anodal side. The cathodal chamber was filled with PBS pH 7.4. The acceptor phase, maintained at 32° C., was continuously perfused with PBS pH 6.2 (NaCl: 8 g·L^−1, KCl: 0.19 g·L^−1, Na2HPO4.2H2O: 0.43 g·L^−1, KH2PO4: 0.97 g·L^−1) at a flow rate of 7.0 ml·h^−1. Unless described elsewhere, the following protocol for the iontophoresis experiments was used: 6 hours of passive diffusion, followed by 9 hours of iontophoresis with a current density of 500 μA·cm^−2 and 5 hours of passive diffusion. Samples were collected every hour with an automatic fraction collector (ISCORetriever IV, Beun De Ronde B V, Abcoude, The Netherlands). The specific conditions of the individual transport studies are described below.
Prior to and at the end of a transport study the pH of donor and acceptor compartment was measured. All samples of the iontophoretic transport studies were analyzed by RP-HPLC using a Superspher® 60 RP-select B, 75 mm-4 mm column (Merck KGaA, Darmstadt, Germany). Rotigotine was detected using a scanning fluorescence detector (Waters™ 474, Millipore, Milford, Mass., USA) at excitation and emission wavelengths of 276 and 302 nm. Acetaminophen was detected using a UV detector (Dual λ Absorbance Detector 2487, Waters, Milford, USA) at a wavelength of 254 nm. Filtered and degassed mobile phase contained 60% H2O (v/v), 40% ACN (v/v) and 0.05% methanesulfonic acid (v/v). The injection volume was 50 μL and the flow rate was set to 1.0 mL·min^−1.
To calculate the steady state flux during passive and iontophoretic transport, the cumulative flux of the transport was plotted as a function of time. The steady state flux was estimated from the linear part of the slope of this plot according to the permeation lag-time method^7. All data are presented as mean±standard deviation (s.d.). When a statistical analysis was performed comparing only 2 groups, a Students t-test was used. When 3 or more groups were compared, a 1-way ANOVA statistical analysis was executed. If the overall p-value was less than 0.05, a bonferonni post-test was applied to compare different groups. For all statistical analysis a significance level of p<0.05 was used. […]

[3] = cited from earlier work; for Solubility: adapted from Nugroho et al.
[4] = pH 5; cited from earlier work
[5] = 20 cm^2 patch containing 10 mg rotigotine hydrochloride, TTS of WO 94/07468; cited from earlier work
[6] = passive delivery, patch size 10 cm^2, estimated to deliver 2 mg in 24 h; cited from earlier work

solubility at 48 h ([1]; aqueous buffer, pH range of about 4 to 5.5, read-out: water solubility): 34 to 83 mM
solubility at 48 h ([1]; pH 4, aqueous buffer, pH 4, 68 mM NaCl, n = 2-3, read-out: Solubility): 80.1 mM
solubility at 48 h ([1]; pH 4, aqueous buffer, pH 4, no NaCl, n = 2-3, read-out: Solubility): 83.5 mM
solubility at 48 h ([1]; pH 5, aqueous buffer, pH 5, 68 mM NaCl, n = 2-3, read-out: Solubility): 43 mM
solubility at 48 h ([1]; pH 5, aqueous buffer, pH 5, no NaCl, n = 2-3, read-out: Solubility): 41.9 mM
solubility at 48 h ([1]; pH 6, aqueous buffer, pH 6, 68 mM NaCl, n = 2-3, read-out: Solubility): 14.4 mM
solubility at 48 h ([1]; pH 6, aqueous buffer, pH 6, no NaCl, n = 2-3, read-out: Solubility): 15.7 mM
solubility fold higher compared to rotigotine-HCl ([1]; pH 4): 12 fold
solubility fold higher compared to rotigotine-HCl ([1]; pH 5): 7 fold
solubility fold higher compared to rotigotine-HCl ([1]; pH 6): 2 fold
effect of addition of NaCl on solubility ([1]; selected pH values 4, 5, 6, 68 mM NaCl, 2-way ANOVA p>0.05): did not affect significantly
steady state flux ± s.d., passive stage ([2]; human, 6 h, 1.24 mg/ml, pH 6): 4.1 ± 1.9 μg/cm^2/h
steady state flux ± s.d., passive stage ([2]; human, 6 h, 1.28 mg/ml, pH 5): 0.5 ± 0.2 μg/cm^2/h
steady state flux ± s.d., passive stage ([2]; human, 6 h, 1.42 mg/ml, pH 6): 3.2 ± 0.2 μg/cm^2/h
steady state flux ± s.d., passive stage ([2]; human, 6 h, 1.46 mg/ml, pH 5): 0.9 ± 0.3 μg/cm^2/h
steady state flux ± s.d., passive stage ([2]; human, 6 h, 3.11 mg/ml, pH 5): 1.0 ± 0.1 μg/cm^2/h
steady state flux ± s.d., passive stage ([2]; human, 6 h, 4.13 mg/ml, pH 6): 9.3 ± 0.9 μg/cm^2/h
steady state flux ± s.d., passive stage ([2]; human, 6 h, 4.3 mg/ml, pH 6): 12.3 ± 0.9 μg/cm^2/h
steady state flux ± s.d., passive stage ([2]; human, 6 h, 6.95 mg/ml, pH 5): 2.3 ± 0.5 μg/cm^2/h
steady state flux ± s.d., passive stage ([2]; human, 6 h, 9.88 mg/ml, pH 5.5): 7.7 ± 0.5 μg/cm^2/h
steady state flux ± s.d., passive stage ([2]; human, 6 h, 15.09 mg/ml, pH 5): 3.6 ± 0.5 μg/cm^2/h
Flux ([2]; human, 6 h, 31.3 mM, pH 5.5): 24.4±1.9 nmol·cm^−2·h^−1
maximum passive flux close to saturation in the donor phase ([2]; human, 6 h, pH 5): 10.8±1.9 nmol·cm^−2·h^−1
maximum passive flux close to saturation in the donor phase ([2]; human, 6 h, pH 6): 24.9 nmol·cm^−2·h^−1
steady state flux ± s.d., iontophoresis stage ([2]; human, 1.24 mg/ml, pH 6): 26.4 ± 1.3 μg/cm^2/h
steady state flux ± s.d., iontophoresis stage ([2]; human, 1.28 mg/ml, pH 5): 20.0 ± 4.9 μg/cm^2/h
Mean steady state flux ± sd ([2]; human, 1.4 mg/ml, pH 5): 22.1 ± 2.5 μg/cm^2/h
steady state flux ± s.d., iontophoresis stage ([2]; human, 1.42 mg/ml, pH 6): 25.1 ± 3.3 μg/cm^2/h
steady state flux ± s.d., iontophoresis stage ([2]; human, 1.46 mg/ml, pH 5): 22.1 ± 2.5 μg/cm^2/h
Mean steady state flux ± sd ([2]; human, 3 mg/ml, pH 5): 26.0 ± 2.1 μg/cm^2/h
steady state flux ± s.d., iontophoresis stage ([2]; human, 3.11 mg/ml, pH 5): 26.0 ± 2.1 μg/cm^2/h
steady state flux ± s.d., iontophoresis stage ([2]; human, 4.13 mg/ml, pH 6): 43.0 ± 2.6 μg/cm^2/h
steady state flux ± s.d., iontophoresis stage ([2]; human, 4.3 mg/ml, pH 6): 47.1 ± 1.8 μg/cm^2/h
steady state flux ± s.d., iontophoresis stage ([2]; human, 6.95 mg/ml, pH 5): 33.7 ± 4.7 μg/cm^2/h
steady state flux ± s.d., iontophoresis stage ([2]; human, 9.88 mg/ml, pH 5.5): 47.9 ± 3.1 μg/cm^2/h
steady state flux ± s.d., iontophoresis stage ([2]; human, 15.09 mg/ml, pH 5): 41.5 ± 3.4 μg/cm^2/h
decrease in steady state flux resulting from the decrease in donor concentration ([2]; human, 24 h, pH 5): 10%
increase in maximum flux compared to rotigotine.HCl ([2]; human, pH 5): 170%
maximum iontophoretic flux ([2]; human, pH 5): 135.8±12.5 nmol·cm^−2·h^−1
SMILES: CCCN(CCc1cccs1)[C@H]1CCc2c(O)cccc2C1.O=P(O)(O)O [rotigotine.H3PO4, rotigotine dihydrogen phosphate]
time to reach steady state flux after current application ([2]; citric buffer pH 5, FIG. 3): within four hours
time to reach steady state of passive transport ([2]; no current, prior to iontophoresis): ≤ 6 h
time to reach steady state flux after current application ([2]; pH 5.5, 31.3 mM, 68 mM NaCl, stepwise increase of current density): ≤ 6 h

SMILES: CCCN(CCc1cccs1)[C@H]1CCc2c(O)cccc2C1 [rotigotine.HCl, rotigotine hydrochloride]
effect of addition of NaCl on solubility ([3]; 68 mM NaCl, results by Nugroho): reduced tremendously
Solubility ([3]; pH 4, 68 mM NaCl): 6.75 µmol/mL
Solubility ([3]; pH 4, no NaCl): 24.39^a,b μmol/ml
Solubility ([3]; pH 5, 68 mM NaCl): 6.35 µmol/mL
maximum solubility ([3]; pH 5, in the presence of 0.07 molar NaCl, previous attempts): 6.3 mM
Solubility ([3]; pH 5, no NaCl, hydrochloride): 22.4 µmol/mL
Solubility ([3]; pH 5, no NaCl, listed as Rotigotine•HCl, hydrochloride): 22.45^a,b μmol/ml
Solubility ([3]; pH 6, 68 mM NaCl): 6.52 µmol/mL
Solubility ([3]; pH 6, no NaCl): 15.87^b μmol/ml
maximum iontophoretic flux [4]: 80.2±14.4 nmol·cm^−2·h^−1
transport number [4]: 0.4%
average drug plasma levels [5]: around 0.15 ng/mL

SMILES: CCCN(CCc1cccs1)[C@H]1CCc2c(O)cccc2C1 [rotigotine, (−)-5,6,7,8-tetrahydro-6-[propyl-[2-(2-thienyl)ethyl]-amino]-1-naphthalenol]
maximum plasma concentration (Cmax) [6]: 0.215 ng/mL
time of maximum plasma concentration [6]: 16 h
